Experimental data as given in patent US11548897B2, “Crystalline forms of a triazolopyrimidine compound” (NOVARTIS AG, priority 2016, dated 2023).

How the values were obtained:
[1] = Stability of solid form to humidity and temperature; assay type: physicochemical
Procedure: Dynamic vapor sorption was performed on a Surface Measurement Systems DVS Advantage instrument. Approximately 10 mg of material was loaded into a sample pan. The samples were exposed to sorption/desorption cycles in 10% relative humidity (RH) steps over the range of 50%-90%-0%-90%-50% RH at 25° C. and 50° C. A target equilibrium condition of mass change less than 0.002% over 5 min was set, with minimum and maximum equilibrium periods of 10 and 360 min, respectively. The carrier gas was nitrogen with a flow rate of 100 mL/min. The system is calibrated with saturated salt solutions. The weight percentage change (wt %) of the sample at each stage was measured and plotted versus the target partial pressure.

[2] = Solubility in selected solvents (Table 2); assay type: physicochemical; conditions: thermodynamic from solid; for solubility at 2 h: 50° C.; for solubility: rt
Procedure: To 10 mg of compound X in a sample vial at 50° C., selected solvent was added dropwise. The addition of solvent was stopped when a clear solution was reached or when the amount of solvent reached 1 mL. The resulting mixture was stirred continuously at 50° C. for 2 h, then cooled to rt, and stirred overnight. The solubilities at 50° C. and rt were determined by the homogeneity of the resulting mixture.

[3] = Rodent pharmacokinetic studies, exposure versus dose; assay type: in vivo; conditions: higher doses
[4] = tested on: H3K27 methylation in G401 cell; assay: ELISA (H3K27 methylation) assay; assay type: cell-based; conditions: Homo sapiens, G-401; ELISA Qualified, G401 cells, 48 h; read-out: (c) IC50
Procedure: ELISA (H3K27 Methylation) Assay
Representative compounds of the present invention were serially and separately diluted 3-fold in DMSO to obtain a total of eight or twelve concentrations. Then the compounds were added to G401 cell cultured in 384-well plate at 1:500 dilution to obtain the highest concentration of 20 μM. The cells were further cultured for 48 h before ELISA procedure.
Histone extraction: Cells, in 384-well plate, were washed with PBS (10×PBS buffer (80 g NaCl (Sigma, S3014), 2 g KCl (Sigma, 60128), 14.4 g Na2HPO4 (Sigma, S5136), 2.4 g KH2PO4 (Sigma, P9791) to 1 L water, pH to 7.4) and lysed with the addition of lysis buffer (0.4N HCl; 45 μL per well). The plate was gently agitated at 4° C. for 30 min. The cell lysate was neutralized with neutralization buffer (0.5 M sodium phosphate dibasic, pH 12.5, 1 mM DTT; 36 μL per well). The plate was agitated to ensure the lysates were well mixed prior to the ELISA protocol.
ELISA protocol: Cell lysates were transferred to the wells of a 384-well plate and the final volume was adjusted to 50 μL per well with PBS. The plate was sealed, centrifuged at 2,000 rpm for 2 min and incubated at 4° C. for about 16 h. […] The signal was read using a PerkinElmer Envision Reader. The H3K27 methylation readouts were normalized using H3 signal and then percentage inhibition was calculated against the samples treated with DMSO. […]

[5] = tested on: B cell lymphoma cell KARPAS422; assay: Analysis of cell proliferation; assay type: cell-based; conditions: Homo sapiens, KARPAS-422, 336 h; KARPAS422, after 14 days of treatment; read-out: antiproliferative activities (IC50 values)
Procedure: Analysis of Cell Proliferation
B cell lymphoma cell KARPAS422 was cultured using standard cell culture conditions in RPMI-1640 (Invitrogen, cat #11875) supplemented with 15% FBS (Invitrogen, cat #10099-141) in humidified incubator at 37° C., 5% CO2. To assess the effect of PRC2 inhibition on cell proliferation, exponentially growing cells were seeded at a density of 1×10^5 cells/mL in 12-well plate (Corning, cat #CLS3513). After cell seeding, a compound of the present invention was added to the cell media (in concentrations ranging from 0 to 100 μM, 3× dilution series). Viable cell numbers were determined every 3-4 days for up to 14 days using Vi-CELL (Beckman Coulter). On days of cell counting, fresh growth media and compound were replenished and cells split back to a density of 1×10^5 cells/mL. Total cell number is expressed as split-adjusted viable cells per mL. The dose response curves and IC50 values were generated using Prism.

[6] = Aqueous solubility (pH 7.4, simulated gastric fluid); assay type: physicochemical
[7] = aqueous with cosolvent or surfactant or cyclodextrin, Acetone/H2O (1/1)
[8] = aqueous with cosolvent or surfactant or cyclodextrin, EtOH/H2O (1/1)
[9] = organic solvent or mixture, ACN
[10] = organic solvent or mixture, Acetone
[11] = organic solvent or mixture, EtOAc
[12] = organic solvent or mixture, EtOH
[13] = organic solvent or mixture, Heptane
[14] = organic solvent or mixture, IPA
[15] = organic solvent or mixture, MTBE
[16] = organic solvent or mixture, MeOH
[17] = organic solvent or mixture, THF

SMILES | solubility at 2 h [2, 7] | solubility [2, 7] | solubility at 2 h [2, 8] | solubility [2, 8] | solubility at 2 h [2, 9] | solubility [2, 9] | solubility at 2 h [2, 10] | solubility [2, 10] | solubility at 2 h [2, 11] | solubility [2, 11] | solubility at 2 h [2, 12] | solubility [2, 12] | solubility at 2 h [2, 13] | solubility [2, 13] | solubility at 2 h [2, 14] | solubility [2, 14] | solubility at 2 h [2, 15] | solubility [2, 15] | solubility at 2 h [2, 16] | solubility [2, 16] | also measured
Cc1ncccc1-c1cnc(NCc2c(F)ccc3c2CCO3)n2cnnc12.Cl [Form HA, N-((5-Fluoro-2,3-dihydrobenzofuran-4-yl)methyl)-8-(2-methylpyridin-3-yl)-[1,2,4]triazolo[4,3-c]pyrimidin-5-amine hydrochloride] | – | – | – | – | – | – | – | – | – | – | – | – | – | – | – | – | – | – | – | – | stability to humidity and temperature [1]: acceptable stability
Cc1ncccc1-c1cnc(NCc2c(F)ccc3c2CCO3)n2cnnc12.Cl [Compound X, N-((5-Fluoro-2,3-dihydrobenzofuran-4-yl)methyl)-8-(2-methylpyridin-3-yl)-[1,2,4]triazolo[4,3-c]pyrimidin-5-amine hydrochloride] | > 50000 µg/mL | < 50000 µg/mL | > 50000 µg/mL | < 50000 µg/mL | < 10000 µg/mL | < 10000 µg/mL | < 10000 µg/mL | < 10000 µg/mL | < 10000 µg/mL | < 10000 µg/mL | < 10000 µg/mL | < 10000 µg/mL | < 10000 µg/mL | < 10000 µg/mL | < 10000 µg/mL | < 10000 µg/mL | < 10000 µg/mL | < 10000 µg/mL | > 10000 µg/mL | > 10000 µg/mL | solubility at 2 h [2, 17]: < 10000 µg/mL; solubility [2, 17]: < 10000 µg/mL; solubility at 2 h ([2]; Water): < 10000 µg/mL; solubility ([2]; Water): < 10000 µg/mL; exposure relative to dose [3]: dose-proportional
Cc1ncccc1-c1cnc(NCc2c(F)ccc3c2CCO3)n2cnnc12 [Compound A, N-((5-Fluoro-2,3-dihydrobenzofuran-4-yl)methyl)-8-(2-methylpyridin-3-yl)-[1,2,4]triazolo[4,3-c]pyrimidin-5-amine] | < 10000 µg/mL | < 10000 µg/mL | < 10000 µg/mL | < 10000 µg/mL | < 10000 µg/mL | < 10000 µg/mL | < 10000 µg/mL | < 10000 µg/mL | < 10000 µg/mL | < 10000 µg/mL | < 10000 µg/mL | < 10000 µg/mL | < 10000 µg/mL | < 10000 µg/mL | < 10000 µg/mL | < 10000 µg/mL | < 10000 µg/mL | < 10000 µg/mL | < 10000 µg/mL | < 10000 µg/mL | IC50 [4]: 2.6 nM; IC50 [5]: 3 nM; solubility at 2 h [2, 17]: < 10000 µg/mL; solubility [2, 17]: < 10000 µg/mL; solubility at 2 h ([2]; Water): < 10000 µg/mL; solubility ([2]; Water): < 10000 µg/mL; aqueous solubility ([6]; physiologically relevant pH level of 7.4): low; aqueous solubility ([6]; simulated gastric fluid (SGF)): low; exposure relative to dose [3]: under-proportional
